We go through two compounds from ChEMBL document CHEMBL4834487, “Model studies towards prodrugs of the glutamine antagonist 6-diazo-5-oxo-l-norleucine (DON) containing a diazo precursor” (Bioorg Med Chem Lett, 2021).

Data set [1] can be described thus: Stability of compound in potassium phosphate buffer at pH 7.4 assessed as parent compound remaining measured after 30 mins. It is filed as physicochemical. Conditions: read-out: Stabilty.
A short description of data set [2]: Drug metabolism in pig brain homogenate assessed as 6-Diazo-5-oxo-L-norleucin formation by ion chromatogram analysis. It is filed as ADME, tissue-based, Sus scrofa.
The nature of data set [3]: Metabolic stability in pig liver homogenate assessed as parent compound remaining measured after 30 mins. It is filed as ADME, tissue-based, Sus scrofa. Conditions: read-out: Stabilty.
The nature of data set [4]: Stability of compound in sodium acetate buffer at pH 4 assessed as parent compound remaining measured after 60 mins. The class given is physicochemical. Conditions: read-out: Stabilty.
Data set [5] in a line: Metabolic stability in pig brain homogenate assessed as parent compound remaining measured after 30 mins. It is filed as ADME, tissue-based, Sus scrofa. Conditions: read-out: Stabilty.
Data set [6] can be described thus: Drug metabolism in pig brain homogenate assessed as N-acetyl-6-Diazo-5-oxo-L-norleucin formation by ion chromatogram analysis. The class given is ADME, tissue-based, Sus scrofa.
Data set [7] is described as follows: Stability of the compound in DMSO measured for 24 hrs. The class given is physicochemical.
A short description of data set [8]: Stability of the compound in DMSO measured within 12 hrs. The class given is physicochemical.

For the compound `CC(=O)N[C@@H](CCC(=O)Cn1nnc2c(C(N)=O)ncn2c1=O)C(=O)O`, the remaining at 0.5 h in data set [1], in data set [3] and in data set [5] was < 5% throughout. The Drug metabolism entry in data set [2] is “Metabolite_Notdetected”; in data set [6], “Metabolite_Detected”. Besides, the remaining at 1 h in data set [4] is > 95%. For the same compound, the Stabilty result in data set [7] is on record as “Stable”.
`CC(=O)NC(CCC(=O)CN(N=O)C(=O)OCc1ccccc1)C(=O)O` (stereo not drawn): in data set [8], the Stabilty entry is “Unstable”.
